In patent US6087119A, “Method for determining the catalytic activity of factor IXa” (Roche Diagnostics GmbH, priority 1996, dated 2000):
Where “and” joins values, the source holds several entries; their conditions need not be identical. Identical values can stand only once. Like-named read-outs stand apart in the source and are kept apart here.

Columns and labels:
rFIXa (human) [1] = biological target: T1, rFIXa (human) (Homo sapiens, UniProt P00740); assay: Influence of alcohols and organic solvents on the activity of rFIXa, chromogenic peptide substrates; type: biochemical; set-up: coding for the FIX protease domain from amino acid position 181 to 415; Met (ATG start codon) (N); made in house; conditions: for V/V0: pH 7.4
Method: The reaction was started by adding FIXa.
MeSO2 -D-HHT-Gly-Arg-pNA→MeSO2 -D-HHT-Gly-Arg+pNA measurement signal: pNA
0.48 μmol/l rFIXa (human)
0-50% (alcohol or organic solvent)
The ratio V/V0 was calculated to illustrate the stimulation of the catalytic activity of rFIXa.
V0, reaction rate without additives
V, reaction rate in the presence of additives
Test Mixture Chromogenic (Concentration in the Test)
Target sequence in this assay (P00740 227-461 limits assumed): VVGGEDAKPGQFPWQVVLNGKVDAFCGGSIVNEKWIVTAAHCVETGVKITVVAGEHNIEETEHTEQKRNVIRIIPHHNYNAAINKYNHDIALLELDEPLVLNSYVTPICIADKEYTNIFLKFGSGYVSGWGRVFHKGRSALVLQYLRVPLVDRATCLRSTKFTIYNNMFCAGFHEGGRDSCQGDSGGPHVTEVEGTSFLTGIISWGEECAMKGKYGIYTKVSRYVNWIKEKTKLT
Target sequence in this assay (P00740 131-226 partner limits assumed): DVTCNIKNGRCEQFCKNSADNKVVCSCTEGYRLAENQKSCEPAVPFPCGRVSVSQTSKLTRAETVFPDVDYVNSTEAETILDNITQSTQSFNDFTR

native FIXa (human) = native FIXa (human) (Homo sapiens, UniProt P00740); conditions: pH 7.4; for V/V0: MeSO2-D-HHT-Gly-Arg-pNA 1.02 mmol/l, 0.14 μmol/l native FIXa
Method: The FIXa test was carried out with recombinantly produced native human FIXa as a sample and the peptide substrate MeSO2 -D-HHT-Gly-Arg-pNA (Pefachrom tPA, Pentapharm Ltd., Basel, Switzerland) or other chromogenic/fluorogenic substrates of the R-D-Xxx-Gly-Arg-pNA type (EP-B 0 034 122) in Tris-HCl buffer and the substances to be tested (alcohol, solvents and inhibitors). The reaction was started by adding FIXa.
The test mixture was incubated at room temperature (25° C.) in a microtitre plate and the change in absorbance (ΔA/min) was measured at 405 nm using an ELISA reader. The activity and the kinetic constants were determined from the linear initial slope according to the Michaelis-Menten equation.
(§1) 1.02 mmol/l MeSO2 -D-HHT-Gly-Arg-pNA
0.14 μmol/l native FIXa (human)
(§2) 0-50% ethanol or ethylene glycol
FIXa Test Mixture (Concentration in the Test)

rFIXa (human) [2] = biological target: T1, rFIXa (human); conditions: fluorogenic MeSO2-D-CHA-Gly-Arg-AMC 0.51 mmol/l, 0.08 μmol/l rFIXa, pH 7.4
Source text: The stimulation of human rFIXa by ethanol and ethylene glycol was examined using the peptide substrates MeSO2 -D-HHT-Gly-Arg-pNA (Pefachrom tPA, Pentapharm Ltd., Basel, Switzerland), MOC-D-Nle-Gly-Arg-pNA (Chromozym X, Boehringer Mannheim GmbH, Mannheim, Germany, Cat.No. 789763), MeSO2 -D-CHG-Gly-Arg-pNA (Pentapharm Ltd., Basel, Switzerland), MeSO2 -D-CHA-Gly-Arg-pNA (Pentapharm Ltd., Basel, Switzerland) and MeSO2 -D-CHA-Gly-Arg-AMC (Pentapharm Ltd., Basel, Switzerland).
Test Mixture Fluorogenic (Concentration in the Test)
0.51 mmol/l MeSO2 -D-CHA-Gly-Arg-AMC
0.08 μmol/l rFIXa (human)
Target sequence in this assay (P00740 227-461): as the sequence (P00740 227-461 limits assumed) above
Target sequence in this assay (P00740 131-226): as the sequence (P00740 131-226 partner limits assumed) above

thrombin (bovine) = thrombin (bovine) (Bos taurus, UniProt P00735); conditions: thrombin 0.045 μmol/l, MeSO2-D-HHT-Gly-Arg-pNA 1.02 mmol/l, pH 7.4
Source text: Thrombin Test Mixture (Concentration in the Test)
(§3) 42 mmol/l Tris-HCl, pH 7.4
as §1
0.045 μmol/l thrombin (bovine)
as §2

FXa (bovine) = FXa (bovine) (Bos taurus, UniProt P00743); conditions: FXa 0.088 μmol/l, MeSO2-D-HHT-Gly-Arg-pNA 1.02 mmol/l, pH 7.4
Source text: FXa Test Mixture (concentration in the Test)
as §3, §1
0.088 μmol/l FXa (bovine)
as §2

FXIa (human) = FXIa (human) (Homo sapiens, UniProt P03951); conditions: FXIa 0.0012 μmol/l, MeSO2-D-HHT-Gly-Arg-pNA 1.02 mmol/l, pH 7.4
Source text: FXIa Test Mixture (Concentration in the Test)
as §3, §1
0.0012 μmol/l FXIa (human)
as §2

[3] = biological target: plasma kallikrein (human) (Homo sapiens, UniProt P03952); conditions: 10-20% ethanol
Source text: Plasma Kallikrein Test Mixture (Concentration in the Test)
as §3, §1
0.0176 U/ml plasma kallikrein (human)
as §2

FXIIa (human) = FXIIa (human) (Homo sapiens, UniProt P00748); conditions: FXIIa 0.0045 U/ml, MeSO2-D-HHT-Gly-Arg-pNA 1.02 mmol/l, pH 7.4
Source text: FXIIa Test Mixture (Concentration in the Test)
as §3, §1
0.0045 U/ml FXIIa (human)
as §2

FXIIa (human), sequence (P00748 373-615 limits assumed, other chains not shown): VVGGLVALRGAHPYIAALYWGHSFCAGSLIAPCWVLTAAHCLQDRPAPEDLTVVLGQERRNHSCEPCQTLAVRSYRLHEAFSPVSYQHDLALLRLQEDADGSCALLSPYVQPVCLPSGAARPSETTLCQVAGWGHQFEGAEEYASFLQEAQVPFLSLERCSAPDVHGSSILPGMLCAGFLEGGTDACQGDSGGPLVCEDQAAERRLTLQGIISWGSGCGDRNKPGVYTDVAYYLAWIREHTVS
native FIXa (human), sequence (P00740 227-461 limits assumed): as the sequence (P00740 227-461 limits assumed) above
native FIXa (human), sequence (P00740 47-191 partner limits assumed): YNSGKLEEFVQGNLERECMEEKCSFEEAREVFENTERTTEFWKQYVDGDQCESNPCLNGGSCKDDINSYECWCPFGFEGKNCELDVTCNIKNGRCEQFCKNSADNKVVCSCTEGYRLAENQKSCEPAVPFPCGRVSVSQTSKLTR
FXIa (human), sequence (P03951 388-625 limits assumed): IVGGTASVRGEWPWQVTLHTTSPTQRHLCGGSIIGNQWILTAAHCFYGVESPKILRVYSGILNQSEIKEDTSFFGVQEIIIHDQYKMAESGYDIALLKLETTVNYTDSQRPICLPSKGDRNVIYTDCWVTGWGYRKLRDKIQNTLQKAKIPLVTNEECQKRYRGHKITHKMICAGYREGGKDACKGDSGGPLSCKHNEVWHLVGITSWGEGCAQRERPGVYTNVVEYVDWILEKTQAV
FXIa (human), sequence (P03951 19-387 partner limits assumed): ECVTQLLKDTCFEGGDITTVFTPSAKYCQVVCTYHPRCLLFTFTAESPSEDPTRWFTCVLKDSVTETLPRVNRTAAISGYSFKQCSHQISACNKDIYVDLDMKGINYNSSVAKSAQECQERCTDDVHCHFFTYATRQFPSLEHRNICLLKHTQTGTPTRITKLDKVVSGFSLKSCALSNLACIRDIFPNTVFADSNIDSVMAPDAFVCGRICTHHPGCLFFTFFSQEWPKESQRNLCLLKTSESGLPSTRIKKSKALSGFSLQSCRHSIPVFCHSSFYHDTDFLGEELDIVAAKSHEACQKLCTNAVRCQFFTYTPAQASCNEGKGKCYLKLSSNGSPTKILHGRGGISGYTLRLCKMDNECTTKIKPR
FXa (bovine), sequence (P00743 234-492 limits assumed): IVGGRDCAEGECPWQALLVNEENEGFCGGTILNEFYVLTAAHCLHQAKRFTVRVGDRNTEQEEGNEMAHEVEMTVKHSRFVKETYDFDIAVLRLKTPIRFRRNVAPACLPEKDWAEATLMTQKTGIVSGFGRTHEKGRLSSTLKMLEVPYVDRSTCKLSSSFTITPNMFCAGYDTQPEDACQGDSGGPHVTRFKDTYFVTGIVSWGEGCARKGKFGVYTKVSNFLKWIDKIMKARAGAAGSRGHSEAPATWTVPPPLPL
FXa (bovine), sequence (P00743 41-180 partner limits assumed): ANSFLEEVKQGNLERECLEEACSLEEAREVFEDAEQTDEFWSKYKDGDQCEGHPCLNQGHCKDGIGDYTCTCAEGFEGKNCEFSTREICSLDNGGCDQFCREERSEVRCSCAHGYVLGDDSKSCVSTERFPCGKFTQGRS
plasma kallikrein (human), sequence (P03952 391-638 limits assumed): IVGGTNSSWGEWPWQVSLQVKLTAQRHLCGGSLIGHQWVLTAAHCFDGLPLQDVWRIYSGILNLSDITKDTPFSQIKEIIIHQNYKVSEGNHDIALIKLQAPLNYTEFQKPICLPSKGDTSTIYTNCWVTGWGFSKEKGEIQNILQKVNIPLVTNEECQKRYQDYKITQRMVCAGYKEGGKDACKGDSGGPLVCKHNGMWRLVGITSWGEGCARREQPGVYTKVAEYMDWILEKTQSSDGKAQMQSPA
plasma kallikrein (human), sequence (P03952 20-390 partner limits assumed): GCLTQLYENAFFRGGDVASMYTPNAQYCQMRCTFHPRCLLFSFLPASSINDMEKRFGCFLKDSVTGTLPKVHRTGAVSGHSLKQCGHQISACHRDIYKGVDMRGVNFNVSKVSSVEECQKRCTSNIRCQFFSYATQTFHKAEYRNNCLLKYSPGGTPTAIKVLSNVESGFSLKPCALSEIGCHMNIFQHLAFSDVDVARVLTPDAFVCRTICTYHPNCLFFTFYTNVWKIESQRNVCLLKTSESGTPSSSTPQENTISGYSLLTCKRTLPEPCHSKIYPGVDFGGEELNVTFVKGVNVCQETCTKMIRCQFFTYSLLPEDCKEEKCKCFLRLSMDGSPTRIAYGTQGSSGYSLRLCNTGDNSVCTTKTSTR

V/V0 (rFIXa (human) [1]; 8% additive, MOC-D-Nle-Gly-Arg-pNA 0.82 mmol/l, 0.48 μmol/l rFIXa): 3.63 | V/V0 (rFIXa (human) [1]; 8% additive, MeSO2-D-CHA-Gly-Arg-pNA 1.02 mmol/l, 0.48 μmol/l rFIXa): 3.30 | V/V0 (rFIXa (human) [1]; 8% additive, MeSO2-D-CHG-Gly-Arg-pNA 1.02 mmol/l, […] rFIXa): 3.33 | V/V0 (rFIXa (human) [1]; 8% additive, MeSO2-D-HHT-Gly-Arg-pNA 1.02 mmol/l, 0.48 μmol/l rFIXa): 2.99 | V/V0 (rFIXa (human) [1]; 16% additive, MOC-D-Nle-Gly-Arg-pNA 0.82 mmol/l, 0.48 μmol/l rFIXa): 7.28 | V/V0 (rFIXa (human) [1]; 16% additive, MeSO2-D-CHA-Gly-Arg-pNA 1.02 mmol/l, 0.48 μmol/l rFIXa): 5.40 | V/V0 (rFIXa (human) [1]; 16% additive, MeSO2-D-CHG-Gly-Arg-pNA 1.02 mmol/l, […] rFIXa): 6.02 | V/V0 (rFIXa (human) [1]; 16% additive, MeSO2-D-HHT-Gly-Arg-pNA 1.02 mmol/l, 0.48 μmol/l rFIXa): 5.52 | V/V0 (rFIXa (human) [1]; 25% additive, MOC-D-Nle-Gly-Arg-pNA 0.82 mmol/l, 0.48 μmol/l rFIXa): 9.95 | V/V0 (rFIXa (human) [1]; 25% additive, MeSO2-D-CHA-Gly-Arg-pNA 1.02 mmol/l, 0.48 μmol/l rFIXa): 5.38 | V/V0 (rFIXa (human) [1]; 25% additive, MeSO2-D-CHG-Gly-Arg-pNA 1.02 mmol/l, […] rFIXa): 6.16 | V/V0 (rFIXa (human) [1]; 25% additive, MeSO2-D-HHT-Gly-Arg-pNA 1.02 mmol/l, 0.48 μmol/l rFIXa): 5.57 | V/V0 (rFIXa (human) [1]; 33% additive, MOC-D-Nle-Gly-Arg-pNA 0.82 mmol/l, 0.48 μmol/l rFIXa): 7.51 | V/V0 (rFIXa (human) [1]; 33% additive, MeSO2-D-CHA-Gly-Arg-pNA 1.02 mmol/l, 0.48 μmol/l rFIXa): 4.30 | V/V0 (rFIXa (human) [1]; 33% additive, MeSO2-D-CHG-Gly-Arg-pNA 1.02 mmol/l, […] rFIXa): 4.50 | V/V0 (rFIXa (human) [1]; 33% additive, MeSO2-D-HHT-Gly-Arg-pNA 1.02 mmol/l, 0.48 μmol/l rFIXa): 3.35 | V/V0 (rFIXa (human) [1]; 41% additive, MOC-D-Nle-Gly-Arg-pNA 0.82 mmol/l, 0.48 μmol/l rFIXa): 3.15 | V/V0 (rFIXa (human) [1]; 50% additive, MeSO2-D-CHA-Gly-Arg-pNA 1.02 mmol/l, 0.48 μmol/l rFIXa): 0.89 | V/V0 (rFIXa (human) [1]; 50% additive, MeSO2-D-CHG-Gly-Arg-pNA 1.02 mmol/l, […] rFIXa): 0.87 | V/V0 (rFIXa (human) [1]; 50% additive, MeSO2-D-HHT-Gly-Arg-pNA 1.02 mmol/l, 0.48 μmol/l rFIXa): 0.606 | V/V0 (rFIXa (human) [1]; 50% additive, MeSO2-D-HHT-Gly-Arg-pNA 1.02 mmol/l, 0.48 μmol/l rFIXa, listed as ethanol): 0.61 and 0.60 | stimulation of the activity of rFIXa (rFIXa (human) [1]; concentration range of 15-40%): 5-15 fold | activation among plasma kallikrein, FXIIa, FXIa, FIXa, FXa and thrombin (in words) (native FIXa (human); 0-50% alcohol, MeSO2-D-HHT-Gly-Arg-pNA): only FIXa is activated | V/V0 (native FIXa (human); 8% additive): 3.40 | V/V0 (native FIXa (human); 16% additive): 5.46 | V/V0 (native FIXa (human); 25% additive): 5.96 | V/V0 (native FIXa (human); 33% additive): 4.82 | V/V0 (native FIXa (human); 41% additive): 1.69 | V/V0 (native FIXa (human); 50% additive): 1.17 | V/V0 (rFIXa (human) [2]; 8% additive): 2.09 | V/V0 (rFIXa (human) [2]; 16% additive): 2.50 | V/V0 (rFIXa (human) [2]; 33% additive): 1.01 | V/V0 (rFIXa (human) [2]; 41% additive): 0.70 | V/V0 (rFIXa (human) [2]; 50% additive): 0.58 | V/V0 (thrombin (bovine); 8% alcohol): 0.846 | V/V0 (thrombin (bovine); 16% alcohol): 0.685 | V/V0 (thrombin (bovine); 25% alcohol): 0.507 | V/V0 (thrombin (bovine); 33% alcohol): 0.343 | V/V0 (thrombin (bovine); 41% alcohol): 0.184 | V/V0 (thrombin (bovine); 50% alcohol): 0.087 | V/V0 (FXa (bovine); 8% alcohol): 0.899 | V/V0 (FXa (bovine); 16% alcohol): 0.752 | V/V0 (FXa (bovine); 25% alcohol): 0.510 | V/V0 (FXa (bovine); 41% alcohol): 0.203 | V/V0 (FXa (bovine); 50% alcohol): 0.086 | V/V0 (FXIa (human); 8% alcohol): 1.08 | V/V0 (FXIa (human); 16% alcohol): 0.845 | V/V0 (FXIa (human); 25% alcohol): 0.657 | V/V0 (FXIa (human); 33% alcohol): 0.469 | V/V0 (FXIa (human); 41% alcohol): 0.353 | V/V0 (FXIa (human); 50% alcohol): 0.258 | activation of plasma kallikrein (in words) [3]: slight activation | V/V0 (FXIIa (human); 8% alcohol): 0.904 | V/V0 (FXIIa (human); 16% alcohol): 0.579 | V/V0 (FXIIa (human); 25% alcohol): 0.187 | V/V0 (FXIIa (human); 33% alcohol): 0.051 | V/V0 (FXIIa (human); 41% alcohol): 0.009 | V/V0 (FXIIa (human); 50% alcohol): 0
SMILES: CCO [Ethanol]
